Data published in patent publication US8487072B2, “Compounds for stimulating P-glycoprotein function and uses thereof” (Angiochem Inc., priority 2006, dated 2013).
Read-outs that look alike come from different tables or passages of the source.

How the values were obtained:
P-gp [1] = molecular target: P-gp (Homo sapiens, UniProt P08183)
[2] = test system: human umbilical vein endothelial cells (HUVEC); test: HUVEC tube formation on Matrigel (angiogenesis in vitro); type: cell-based; details: 40 μg/ml, 18 hours (FIG. 4A)
Protocol: The effect of these compounds on angiogenesis was evaluated in vitro using human umbilical vein endothelial cells (HUVEC) tube formation on Matrigel. Following transfections, cells were trypsinized and 2.5×10^4 cells were seeded on Matrigel. After cellular adhesion, the medium was removed and 100 μl fresh medium was added with or without 40 μg/ml of either pepCav or pepPgp. Tube formation was evaluated after 18 hours. After incubation, tubular structures were visualized at 60× magnification using a Nikon TMS-F microscope and Northern Eclipse Software.

P-gp [3] = test: Brain uptake of [3H]-Taxol in vivo (P-gp efflux transport at the blood brain barrier); set-up: species or system mice; details: peptide 20 μg/ml; for reduction of [3H]-Taxol in the capillaries and in the parenchyma relative to total brain: [3H]-Taxol perfused 5 minutes; for reduction of Taxol passage in the total brain vs control mice: [3H]-Taxol perfused through right jugular vein for 5 minutes, total brain (FIG. 2)
Protocol: The effect of compounds on P-gp efflux transport activity was investigated in vivo. For this purpose, the brain uptake of [^3H]-Taxol, a specific substrate of P-gp, was measured. [^3H]-Taxol was perfused into the brain through the right jugular vein for 5 minutes in the presence or absence of pepCav or pepPgp at a concentration of 20 μg/ml. Radioactivity of [^3H]-Taxol was analyzed in the total brain, the capillary and the parenchyma.

angiogenesis = test: Matrigel plug assay (angiogenesis in vivo), hemoglobin content; details: Matrigel with heparin and bFGF under the skin of mice, plug removed after one week; 100 μg/ml in the method, 40 μg/ml in the result sentence (FIG. 4B)
Protocol: The effect of these compounds on angiogenesis was evaluated in vivo using the Matrigel plug assay. Briefly, Matrigel containing heparin and bFGF was injected under the skin of mice in the presence or absence of 100 μg/ml pepCav and pepPgp. The Matrigel plug was removed after one week. Hemoglobin content in the Matrigel plugs, which corresponds to the vessels formed, was measured.

MDCK-MDR1 cells = test: Cell migration of MDCK-MDR1 cells, Transwell filters; type: cell-based, canine; details: 20 μg/ml, Transwell 8 μm precoated with 0.15% gelatin, 10% serum as chemoattractant (FIGS. 3A, 3B)
Protocol: The effect of both compounds on cell migration, was determined by the migration of MDCK-MDR1 cells using Transwell filters (Costar; 8 μm pore size) precoated with 0.15% gelatin. Briefly, 1×10^5 cells were resuspended in 100 μl of serum-free medium with or without compounds (20 μg/ml). The lower chamber of the Transwell contained 10% serum used as chemoattractant. Cell migration was determined using a Nikon TMS-F microscope and Northern Eclipse Software. As observed in FIGS. 3A and 3B, pepPgp and pepCav inhibited cells migration of MDCK-MDR1 by 30% and 80%, respectively, as compared to the control.

Chain of P-gp (Homo sapiens, UniProt P08183) (P08183 whole entry): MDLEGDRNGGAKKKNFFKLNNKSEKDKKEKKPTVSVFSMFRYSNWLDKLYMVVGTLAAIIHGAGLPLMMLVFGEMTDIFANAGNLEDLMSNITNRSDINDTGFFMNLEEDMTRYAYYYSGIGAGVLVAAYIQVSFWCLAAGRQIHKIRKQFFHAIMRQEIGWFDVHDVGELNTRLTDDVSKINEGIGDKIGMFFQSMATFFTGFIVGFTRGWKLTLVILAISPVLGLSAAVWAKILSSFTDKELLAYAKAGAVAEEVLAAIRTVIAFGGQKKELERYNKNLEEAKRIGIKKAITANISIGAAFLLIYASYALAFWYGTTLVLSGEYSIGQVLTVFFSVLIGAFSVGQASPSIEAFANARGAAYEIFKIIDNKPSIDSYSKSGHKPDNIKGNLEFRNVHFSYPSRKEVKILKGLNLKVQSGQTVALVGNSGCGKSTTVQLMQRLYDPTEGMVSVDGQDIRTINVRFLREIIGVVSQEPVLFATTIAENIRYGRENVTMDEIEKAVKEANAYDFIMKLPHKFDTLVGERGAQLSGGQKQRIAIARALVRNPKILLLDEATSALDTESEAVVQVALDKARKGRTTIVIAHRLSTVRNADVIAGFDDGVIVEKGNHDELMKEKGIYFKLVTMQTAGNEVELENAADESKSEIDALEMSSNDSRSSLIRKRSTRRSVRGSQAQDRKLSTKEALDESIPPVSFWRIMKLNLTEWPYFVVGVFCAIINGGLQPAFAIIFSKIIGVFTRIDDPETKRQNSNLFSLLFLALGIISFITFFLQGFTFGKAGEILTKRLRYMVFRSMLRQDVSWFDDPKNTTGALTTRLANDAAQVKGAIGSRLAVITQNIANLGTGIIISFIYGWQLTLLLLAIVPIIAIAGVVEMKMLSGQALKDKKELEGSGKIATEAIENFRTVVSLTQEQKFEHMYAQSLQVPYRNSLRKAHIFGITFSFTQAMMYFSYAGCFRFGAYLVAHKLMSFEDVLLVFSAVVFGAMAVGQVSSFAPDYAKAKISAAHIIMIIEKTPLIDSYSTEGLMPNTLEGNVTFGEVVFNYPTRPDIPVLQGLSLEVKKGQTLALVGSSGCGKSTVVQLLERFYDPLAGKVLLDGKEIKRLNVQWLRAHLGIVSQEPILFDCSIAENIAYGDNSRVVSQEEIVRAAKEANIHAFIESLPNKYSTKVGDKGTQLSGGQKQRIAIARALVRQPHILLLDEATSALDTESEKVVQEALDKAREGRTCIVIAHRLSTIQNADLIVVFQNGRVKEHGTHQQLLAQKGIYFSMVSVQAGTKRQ

Sequence | [3H]-vinblastine accumulation with increasing concentrations of compound (P-gp [1]) | reduction of capillary-like structure formation [2] [%] | reduction of [3H]-Taxol in the capillaries and in the parenchyma relative to total brain (P-gp [3]) | reduction of Taxol passage in the total brain vs control mice (P-gp [3]) [%] | reduction of hemoglobin content in Matrigel plug vs control (bFGF alone) (angiogenesis) [%] | inhibition of cell migration of MDCK-MDR1 vs control (MDCK-MDR1 cells) [%] | accumulation of [3H]-vinblastine as a function of time (P-gp [1]; MDCK-MDR1 cells, 20 μg/ml peptide, different times following treatment (FIG. 1A)) | [3H]-vinblastine accumulation with increasing concentrations of compound (P-gp [1]; MDCK-MDR1 cells, increasing concentrations (FIG. 1B))
VFSMFRYSNWLDK [pepPgp] | reduced | 40 | similar | 30 | 40 | 30 |  | 
DGIWKASFTTFTVTKYWFYR [pepCav, exemplary peptide derived from the caveolin-1 scaffolding domain (amino acids 82-101)] |  | 75 | similar | 50 | 25 | 80 | decreased as a function of time | reduced
